Assay results from US9274101B2 (BIOLOG, Inc., priority 2001, dated 2016).

Key:
HepG2 cells = HepG2 cells cultured on CYTODEX 3 microcarriers, energy sources; type: cell-based, human; conditions: for activity at 30 µM / activity at 100 µM / activity at 330 µM / activity at 1000 µM / activity at 3300 µM / activity at 10000 µM / activity at 15000 µM / activity at 20000 µM: Homo sapiens, HepG2, 68 h, read-out: Responses of HepG2 Cells Cultured on Microcarriers After 68 hours in Culture and a 4 hour Color Development Period
Summary of the method: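 HepG2 cells on CYTODEX 3 microcarriers, held in methylcellulose-containing DME with 10% HI FBS lacking glucose, glutamine and pyruvate, exposed to test energy sources at 0.033–20 mM final. After 68 h at 37 °C, MTS/PMS read at 490 nm (ref 650 nm) after 4–8 h; cell-free background subtracted, normalized to % no-energy-source control.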

ten strains of E. coli = type: cell-based, Escherichia coli; note: key: +: indicates that the organism tested was capable of utilizing the carbon source listed; −: indicates that the organism tested was not capable of utilizing the carbon source listed; indicates weak positive reactions
HL-60 cells = HL-60 cells in PM1 and PM2 plates, MTS/MPMS color, % negative control; type: cell-based, human; conditions: L-glutamine 13.7 mM (well E1); citric acid 10.4 mM (well F2)
[1] = tested on: Salmonella typhimurium auxotrophs hisF645 and pyrCΔ73; type: cell-based

O=C1O[C@@H]([C@H](O)CO)[C@H](O)[C@H]1O [D-gal acid g-lactone]
Responses of HepG2 Cells Cultured on Microcarriers After 68 hours in Culture and a 4 hour Color Development Period (HepG2 cells; Conc. 0.03 mM): 99.4 % of negative control | Responses of HepG2 Cells Cultured on Microcarriers After 68 hours in Culture and a 4 hour Color Development Period (HepG2 cells; Conc. 0.10 mM): 100.2 % of negative control | Responses of HepG2 Cells Cultured on Microcarriers After 68 hours in Culture and a 4 hour Color Development Period (HepG2 cells; Conc. 0.33 mM): 89.0 % of negative control | Responses of HepG2 Cells Cultured on Microcarriers After 68 hours in Culture and a 4 hour Color Development Period (HepG2 cells; Conc. 1.00 mM): 89.4 % of negative control | Responses of HepG2 Cells Cultured on Microcarriers After 68 hours in Culture and a 4 hour Color Development Period (HepG2 cells; Conc. 3.3 mM): 101.7 % of negative control | Responses of HepG2 Cells Cultured on Microcarriers After 68 hours in Culture and a 4 hour Color Development Period (HepG2 cells; Conc. 10 mM): 95.2 % of negative control | Responses of HepG2 Cells Cultured on Microcarriers After 68 hours in Culture and a 4 hour Color Development Period (HepG2 cells; Conc. 15 mM): 98.6 % of negative control | Responses of HepG2 Cells Cultured on Microcarriers After 68 hours in Culture and a 4 hour Color Development Period (HepG2 cells; Conc. 20 mM): 74.1 % of negative control

O=C[C@H](O)[C@@H](O)[C@@H](O)[C@H](O)C(=O)O [D-galacturonic acid]
carbon source utilization (ten strains of E. coli): +

NC(=O)C[C@H](N)C(=O)O [L-asparagine]
carbon source utilization (ten strains of E. coli): + and −

NC(=O)CC[C@H](N)C(=O)O [L-glutamine]
response in words (HepG2 cells; 68 hours culture, responses greater than 140% of the negative control scored positive): narrow range of responsiveness | activity at 30 µM (HepG2 cells; Conc. 0.03 mM): 110% | activity at 100 µM (HepG2 cells; Conc. 0.10 mM): 151% | activity at 330 µM (HepG2 cells; Conc. 0.33 mM): 195% | activity at 1000 µM (HepG2 cells; Conc. 1.00 mM): 211% | activity at 3300 µM (HepG2 cells; Conc. 3.3 mM): 212% | activity at 10000 µM (HepG2 cells; Conc. 10 mM): 183% | activity at 15000 µM (HepG2 cells; Conc. 15 mM): 150% | activity at 20000 µM (HepG2 cells; Conc. 20 mM): 101% | response in words (HL-60 cells): strong positive response | carbon source utilization (ten strains of E. coli): + and −

N[C@@H](Cc1c[nH]cn1)C(=O)O [L-histidine]
growth stimulation (well color) [1]: turned purple

Cc1cn([C@H]2C[C@H](O)[C@@H](CO)O2)c(=O)[nH]c1=O [Thymidine]
activity at 30 µM (HepG2 cells; Conc. 0.03 mM): 87.9% | activity at 100 µM (HepG2 cells; Conc. 0.10 mM): 101% | activity at 330 µM (HepG2 cells; Conc. 0.33 mM): 97.9% | activity at 1000 µM (HepG2 cells; Conc. 1.00 mM): 99.4% | activity at 3300 µM (HepG2 cells; Conc. 3.3 mM): 89% | activity at 10000 µM (HepG2 cells; Conc. 10 mM): 71.4% | activity at 15000 µM (HepG2 cells; Conc. 15 mM): 65.2% | activity at 20000 µM (HepG2 cells; Conc. 20 mM): 34.5% | carbon source utilization (ten strains of E. coli): +
